Measured values reported in patent US20200397795A1, “PROPHYLACTIC TREATMENT OF VENOUS THROMBOEMBOLISM” (JANSSEN PHARMACEUTICALS, INC., priority 2019, published 2020).

Test system: symptomatic VTE and VTE-related death in high-risk, medically ill subjects
Assay: MARINER (Study 2): efficacy of rivaroxaban vs placebo for 45 days post-hospital discharge
Assay type: in vivo, human
Set-up: Primary efficacy outcome, absolute difference vs placebo / Primary efficacy outcome, relative risk reduction vs placebo: concentration or dose not given beside the values
Conditions: for Primary efficacy outcome (symptomatic VTE and VTE-related death), n/N (%): CEC adjudicated
Source text: The primary objective of Study 2 (MARINER) was to assess the efficacy and safety of rivaroxaban, compared with placebo in the prevention of symptomatic venous thromboembolism (VTE; lower extremity deep vein thrombosis [DVT] and non-fatal pulmonary embolism [PE]) and VTE-related death (death due to PE or death in which PE could not be ruled out as the cause) post-hospital discharge in high-risk, medically ill subjects.
This was a multicenter, prospective, randomized, double-blind, placebo-controlled, event-driven study conducted in multiple geographic regions (North America, South America, Eastern Europe, Western Europe, and Other locations) that evaluated rivaroxaban, compared with placebo, in the prevention of symptomatic VTE events and VTE-related deaths for a period of 45 days post-hospital discharge in high-risk, medically ill subjects. The study consisted of a screening phase, a 45-day double-blind treatment phase, and a 30-day safety follow-up period (which was also the end of study [EOS]). The total duration for a subject who completed the study (including the safety follow-up period) after randomization was 75 (±5) days.
The index hospitalization was at least 3 and no more than 10 consecutive days in duration. […] Subjects received thromboprophylaxis during the index hospitalization with low molecular weight heparin (LMWH) or unfractionated heparin (UFH).
Randomization occurred on the same day or the day after the subject left the hospital, and occurred at the hospital, clinic, or other discharge destination. Eligible subjects were to be randomly assigned (1:1) by strata (by creatinine clearance [CrCl] level [≥30-<50 mL/min versus ≥50 mL/min] and by country) to receive either rivaroxaban or placebo. Subjects with a baseline CrCl of ≥50 mL/min were to receive rivaroxaban 10 mg once daily (QD) or placebo QD. A dose adjustment to rivaroxaban 7.5 mg QD was to be implemented for subjects with a baseline CrCl of ≥30 to <50 mL/min. Study drug started at randomization (Day 1) and continued until Day 45 (inclusive). The subject was assessed 30 days later for safety follow-up.
Criteria for Evaluation: This was a clinical outcomes study. The primary efficacy outcome was the composite of all symptomatic VTE events and VTE-related death from randomization up to Day 45. Secondary efficacy outcomes were: VTE-related death; symptomatic VTE; the composite of symptomatic VTE and ACM; the composite of symptomatic VTE, MI, non-hemorrhagic stroke and CV death; and ACM.
The primary and secondary efficacy outcomes were analyzed based on the time from randomization to the first occurrence in the ITT analysis set and Up-to-Day 45 analysis phase. […] A Cox proportional hazards model, stratified by subjects with CrCl ≥30 to <50 mL/min versus subjects with CrCl ≥50 mL/min, with the treatment (as randomized) as the only covariate was used for each analysis. A 2-sided p-value was reported, and if it was less than the 2-sided alpha of 0.05, then superiority of the study drug was to be declared when the observed survival functions favored rivaroxaban. The point estimate and corresponding 95% confidence interval (CI) for the hazard ratio (HR; rivaroxaban to placebo) were provided based on the Cox proportional hazards model. To control the family-wise type I error rate at alpha of 0.05 (2-sided) in testing for efficacy outcomes, if superiority of rivaroxaban over placebo for the primary efficacy outcome was established, superiority of rivaroxaban over placebo on secondary outcomes was tested sequentially using a closed testing procedure in a hierarchical order, each at alpha of 0.05 (2-sided).

[1] = Up-to-Day 45, ITT, listed as rivaroxaban
[2] = as reported by the investigator

Q: What does the source list for `O=C(NC[C@H]1CN(c2ccc(N3CCOCC3=O)cc2)C(=O)O1)c1ccc(Cl)s1` [Rivaroxaban, 5-chloro-N-({(5S)-2-oxo-3-[4-(3-oxo-4-morpholinyl)phenyl]-1,3,oxazolidin-5-yl}methyl)-2-thiophenecarboxamide]?
A: Primary efficacy outcome, HR vs placebo (7.5 mg dose stratum): 1.00; Primary efficacy outcome, RRR vs placebo (7.5 mg dose stratum): 0%; Primary efficacy outcome, incidence (7.5 mg dose stratum, Up-to-Day 45, ITT): 1.64%; Primary efficacy outcome, HR vs placebo (10 mg dose stratum): 0.67; Primary efficacy outcome, RRR vs placebo (10 mg dose stratum): 33%; Primary efficacy outcome, incidence (10 mg dose stratum, Up-to-Day 45, ITT): 0.65%; Rehospitalization for symptomatic VTE within 30 days after randomization, HR vs placebo (ITT): 0.50; Rehospitalization for symptomatic VTE within 30 days after randomization, incidence (ITT): 0.15%; ACM, event rate (Up-to-Day 45, ITT): 1.19 100 pt-45 dy; ACM, hazard ratio (95% CI) vs placebo (Up-to-Day 45, ITT): 0.80 (0.58, 1.09); Composite of symptomatic VTE and ACM, RRR vs placebo (Up-to-Day 45, ITT): 27%; Composite of symptomatic VTE and ACM, absolute difference vs placebo (Up-to-Day 45, ITT): 0.48%; Composite of symptomatic VTE and ACM, event rate (Up-to-Day 45, ITT): 1.31 100 pt-45 dy; Composite of symptomatic VTE and ACM, hazard ratio (95% CI) vs placebo (Up-to-Day 45, ITT): 0.73 (0.54, 0.97); Composite of symptomatic VTE and ACM, n/N (%) (Up-to-Day 45, ITT): 78/6007 (1.30) %; Composite of symptomatic VTE, MI, non-hemorrhagic stroke and CV death, event rate (Up-to-Day 45, ITT): 1.58 100 pt-45 dy; Composite of symptomatic VTE, MI, non-hemorrhagic stroke and CV death, hazard ratio (95% CI) vs placebo (Up-to-Day 45, ITT): 0.78 (0.60, 1.02); Composite of symptomatic VTE, MI, non-hemorrhagic stroke and CV death, n/N (%) (Up-to-Day 45, ITT): 94/6007 (1.56) %; Death (PE cannot be ruled out), event rate (Up-to-Day 45, ITT): 0.67 100 pt-45 dy; Death (PE cannot be ruled out), hazard ratio (95% CI) vs placebo (Up-to-Day 45, ITT): 0.98 (0.63, 1.51); Death (PE cannot be ruled out), n/N (%) (Up-to-Day 45, ITT): 40/6007 (0.67) %; Death (PE), event rate (Up-to-Day 45, ITT): 0.05 100 pt-45 dy; Death (PE), hazard ratio (95% CI) vs placebo (Up-to-Day 45, ITT): 0.60 (0.14, 2.51); Death (PE), n/N (%) (Up-to-Day 45, ITT): 3/6007 (0.05) %; MI, HR vs placebo (Up-to-Day 45, ITT): 1.36; MI, incidence (Up-to-Day 45, ITT): 0.25%; Non-hemorrhagic stroke, HR vs placebo (Up-to-Day 45, ITT): 0.63; Non-hemorrhagic stroke, incidence (Up-to-Day 45, ITT): 0.32%; Primary efficacy outcome, absolute difference vs placebo (Up-to-Day 45, ITT): 0.27%; Primary efficacy outcome, event rate (Up-to-Day 45, ITT): 0.84 100 pt-45 dy; Primary efficacy outcome, hazard ratio (95% CI) vs placebo (Up-to-Day 45, ITT): 0.76 (0.52, 1.09); Primary efficacy outcome, relative risk reduction vs placebo (Up-to-Day 45, ITT): 24%; Symptomatic VTE (lower extremity DVT and non-fatal PE), n/N (%) (Up-to-Day 45, ITT): 11/6007 (0.18) %; Symptomatic VTE, RRR vs placebo (Up-to-Day 45, ITT): 56%; Symptomatic VTE, absolute difference vs placebo (Up-to-Day 45, ITT): 0.24%; Symptomatic VTE, event rate (Up-to-Day 45, ITT): 0.19 100 pt-45 dy; Symptomatic VTE, hazard ratio (95% CI) vs placebo (Up-to-Day 45, ITT): 0.44 (0.22, 0.89); Symptomatic lower extremity DVT, RRR vs placebo (Up-to-Day 45, ITT): 69%; Symptomatic lower extremity DVT, absolute difference vs placebo (Up-to-Day 45, ITT): 0.15%; Symptomatic lower extremity DVT, event rate (Up-to-Day 45, ITT): 0.07 100 pt-45 dy; Symptomatic lower extremity DVT, hazard ratio (95% CI) vs placebo (Up-to-Day 45, ITT): 0.31 (0.10, 0.94); Symptomatic lower extremity DVT, n/N (%) (Up-to-Day 45, ITT): 4/6007 (0.07) %; Symptomatic non-fatal PE, event rate (Up-to-Day 45, ITT): 0.12 100 pt-45 dy; Symptomatic non-fatal PE, hazard ratio (95% CI) vs placebo (Up-to-Day 45, ITT): 0.47 (0.19, 1.14); Symptomatic non-fatal PE, n/N (%) (Up-to-Day 45, ITT): 7/6007 (0.12) %; Symptomatic upper extremity DVT, number (and incidence) (Up-to-Day 45, ITT): no subject; VTE-related death, event rate (Up-to-Day 45, ITT): 0.72 100 pt-45 dy; VTE-related death, hazard ratio (95% CI) vs placebo (Up-to-Day 45, ITT): 0.93 (0.62, 1.42); VTE-related death, n/N (%) (Up-to-Day 45, ITT): 43/6007 (0.72) %; Primary efficacy outcome (symptomatic VTE and VTE-related death), n/N (%) (Up-to-Day 45, ITT): 50/6007 (0.83) %; Primary efficacy outcome (symptomatic VTE and VTE-related death), n/N (%) [1]: 0.83%; ACM, hazard ratio (95% CI) vs placebo [1]: 0.80; ACM, n/N (%) [1]: 1.18%; Composite of symptomatic VTE and ACM, hazard ratio (95% CI) vs placebo [1]: 0.73; Composite of symptomatic VTE and ACM, n/N (%) [1]: 1.30%; Composite of symptomatic VTE, MI, non-hemorrhagic stroke and CV death, hazard ratio (95% CI) vs placebo [1]: 0.78; Composite of symptomatic VTE, MI, non-hemorrhagic stroke and CV death, n/N (%) [1]: 1.56%; Primary efficacy outcome, hazard ratio (95% CI) vs placebo [1]: 0.76; Symptomatic VTE (lower extremity DVT and non-fatal PE), n/N (%) [1]: 0.18%; Symptomatic VTE, hazard ratio (95% CI) vs placebo [1]: 0.44; Symptomatic lower extremity DVT, hazard ratio (95% CI) vs placebo [1]: 0.31; Symptomatic lower extremity DVT, n/N (%) [1]: 0.07%; Symptomatic non-fatal PE, hazard ratio (95% CI) vs placebo [1]: 0.47; Symptomatic non-fatal PE, n/N (%) [1]: 0.12%; VTE-related death, hazard ratio (95% CI) vs placebo [1]: 0.93; VTE-related death, n/N (%) [1]: 0.72%; Primary efficacy outcome, HR vs placebo [2]: 0.40; Primary efficacy outcome, RRR vs placebo [2]: 60%; Primary efficacy outcome, absolute difference vs placebo [2]: 0.37%; Primary efficacy outcome, incidence (as reported by the investigator (post-hoc sensitivity analysis)): 0.25%
